Results from patent US8975442B2, “Process for the preparation of and crystalline forms of optical enantiomers of modafinil” (Teva Sante, priority 2002, dated 2015).

Experiments:
Type in all cases: physicochemical
[1] = Solubility of modafinil acid in ethanol
Excerpt: Solubility of the Racemic Mixture in Ethanol:

[2] = Solubility of modafinil acid in 2-methoxyethanol
Excerpt: Solubility of the Racemic Mixture in 2-Methoxyethanol: […]

[3] = Solubility of modafinil acid in methanol
Excerpt: Solubility of the Racemic Mixture in Methanol:

Row | Structure (SMILES) | Solubility by mass ([1]; 10.0 °C) | ratio α (ratio of solubilities s(±)/s(+)) ([1]; 20 °C) | Solubility by mass ([1]; 20.0 °C) | Solubility by mass ([1]; 30.0 °C) | Solubility by mass ([2]; 10.0 °C) | ratio α (ratio of solubilities s(±)/s(+)) ([2]; 20 °C) | Solubility by mass ([2]; 20.0 °C) | Solubility by mass ([2]; 30.0 °C) | Solubility by mass ([2]; 40.0 °C) | Solubility by mass ([3]; 10.0 °C) | ratio α (ratio of solubilities s(±)/s(+)) ([3]; 20 °C) | Solubility by mass ([3]; 20.0 °C) | Solubility by mass ([3]; 30.0 °C) | Solubility by mass ([3]; 40.0 °C)
1 | O=C(O)C[S+]([O-])C(c1ccccc1)c1ccccc1 (racemic) [(±)-modafinil acid, (±)-benzhydrylsulphinylacetic acid] | 3.0% | 2.06 | 4.1% | 5.96% | 7.4% | 2.53 | 8% | 13.5% | 16% | 7.4% | 2.53 | 9.7% | 13.9% | 25.7%
2 | O=C(O)C[S+]([O-])C(c1ccccc1)c1ccccc1 (single isomer, unassigned; (+)) [(+)-antipode] |  |  | 1.99% |  |  |  | 4% |  |  |  |  | 4.9% |  | 
